Data: article PMC12264554, “Application of preclinical absorption, distribution, metabolism, elimination in vitro techniques for the characterization and compound library optimization of novel antibiotic gallium salophen” (Drug Metabolism and Disposition, 2025)
Read-outs that look alike come from different tables or passages of the source.

Legend:
[1] = calculated B/P, cited from earlier work
[2] = Caco-2 permeability screening; format: in vitro ADME; conditions: for Papp A→B / Papp B→A / efflux ratio at 20 µM: Caco-2, 20 μM; for Papp A→B / Papp B→A: 30 and 60 min, average ± SEM; for Papp A→B: read-out: Papp apical to basolateral; for Papp B→A: read-out: Papp basolateral to apical; for Papp: Caco-2, ranked by Papp against control drugs, read-out: Permeability ranking; for efflux ratio at 20 µM: read-out: Efflux ratio B to A/A to B
Protocol: (§1) Caco-2 cells were received from American Type Culture Collection and certified mycoplasma free. Cells were seeded on transwell plates (CoStar, growth area 0.33 cm^2/well, polycarbonate membrane, 0.33 μm pore size) between passage 20 and 27 and then analyzed between 21 and 25 days after wells were seeded to ensure enterocyte-like differentiation. Before assessing permeability, cells were washed once with Hank’s Balanced Salt Solution buffer, pH 7.4, and then incubated at 37 °C for 30 minutes. Transepithelial electrical resistance (TEER) was measured after equilibration before the experiment using an epithelial volt-ohmmeter (EVOM, World Precision Instruments), and cells were used if TEER > 250 Ω × cm^2. Cells were dosed to measure permeability from basolateral and apical sides at a concentration of 20 μM of test compound and 50 μM of Lucifer yellow. Lucifer yellow was used as a “zero permeability” marker to monitor the integrity of cell barrier. Samples were taken at 0 and 60 minutes from the donor side, and samples were taken at 30 and 60 minutes from the receiver side; media was replenished after the 30-minute sample was taken from both chambers. A calibration curve was prepared by serial dilution using the dosing solution in a 1:5 dilution. […] Samples were prepared for LC-MS/MS analysis by taking 100 μL of sample, adding 1 μM internal standard (GaSal-4 or GaSal-5), and crashing with 400 μL of methanol. Samples were centrifuged at 3000 rpm at 4 °C for 30 minutes, 200 μL of supernatant was transferred to a new plate, and 100 μL of water was added to each sample. Samples were vortexed and analyzed by LC-MS/MS as described earlier. […] To preliminarily evaluate organic cation transporter 1 (OCT1) or P-glycoprotein (P-gp)-dependent transport, transport studies were conducted with and without a 1 μM “inhibitor cocktail” alongside GaSal. […] The Papp for basolateral to apical, Papp apical to basolateral, and efflux ratio were reported for each compound. In order to calculate Papp, the concentration in the sampled time point was determined from the calibration curve and then converted to μg based on the volume of the chamber (0.2 mL for apical, 1.0 mL for basolateral). […] The calculation of Papp was determined using eq. […] Data are presented as the average ± SEM for each compound analyzed as n = 3 on 2 different days with 2 different cell line passages, for n = 6 total. GaSal is n = 3 on 3 different cell line passages since this was used as a test compound for the inhibition cocktail experiments.

[3] = target: HasA (Pseudomonas aeruginosa, UniProt G3XD33); assay: Kd determination by fluorescence quenching of apo-HasAp; conditions: read-out: HasA Kd; apo-HasAp 1 μM, 20 mM sodium phosphate pH 7.4, 25 °C, one-site binding fit
Chain of HasA (G3XD33 entry or part of it): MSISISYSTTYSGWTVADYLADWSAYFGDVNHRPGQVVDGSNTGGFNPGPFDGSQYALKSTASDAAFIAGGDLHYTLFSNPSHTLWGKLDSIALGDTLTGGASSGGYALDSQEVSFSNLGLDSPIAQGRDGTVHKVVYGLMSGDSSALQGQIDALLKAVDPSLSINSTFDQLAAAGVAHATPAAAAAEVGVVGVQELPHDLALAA
Protocol: Wild-type, full-length HasAp was prepared from freshly transformed Escherichia coli BL21(DE3) competent cells as previously described in 4 L of M9 media. Cell pellets were resuspended and lysed with an LM-20 microfluidizer at 18,000 psi. Lysate was clarified by centrifugation and applied to a Q-Sepharose column. HasAp was eluted over a gradient from 20 to 600 mM NaCl in 20 mM Tris-HCl (pH 7.5), and desired fractions determined by SDS-PAGE were pooled. Apo-HasAp was further purified on a Butyl Sepharose Fast Flow column equilibrated with 50 mM sodium phosphate buffer with 0.7 M ammonium sulfate (pH 7.0). Holo-HasAp and other proteins eluted within 2–3 bed volumes of 50 mM sodium phosphate containing 0.5 M ammonium sulfate. Apo-HasAp was then eluted with a linear gradient of sodium phosphate buffer (50–20 mM) containing ammonium sulfate (0.5–0 M). Fractions were analyzed again by SDS-PAGE, and the apo-HasAp was pooled, concentrated (Amicon stirred cell with Ultracel 10 kDa filter), and exchanged into 20 mM sodium phosphate buffer.
Binding affinities were determined using a BioTek Synergy H1 microplate reader in a black 96-well plate. Compounds were solvated in H2O in serial dilutions (100–0.39 μM). One micromolar solution of apo-HasAp 20 mM sodium phosphate buffer (pH 7.4, 25 °C) was titrated into the ligand of interest. Emission spectra were recorded (300–500 nm) after excitation at 280 nm. The decrease in maximum emission was plotted against the ligand concentration (accounting for dilution) and fit to one-site binding using GraphPad Prism v10.

[4] = Experimental LogP by reverse-phase HPLC method; format: physicochemical; conditions: extrapolated log kw
Description: LogP was experimentally determined using previously published reverse-phase high-performance liquid chromatography method, and this workflow was adapted using instrumentation described in the previous LC-MS/MS analysis section ([Coutinho et al, 2023]). Briefly, analogs were eluted using isocratic flow with an increasing percentage of organic solvent from 55% to 90% in increments of 5%. The change in the log of the retention factor, log k, was plotted against the fraction of organic solvent. This allowed for extrapolation to the y-intercept, which is when the fraction of organic in the system is zero, or log kw. The same workflow was applied to known compounds with a published logP value to establish a relationship between logP and log kw. This ratio was used to calculate the experimental logP from the log kw of the test compounds. The in silico prediction of logP values was obtained using an online calculator by Molinspiration Cheminformatics (molinspiration.com).

[5] = test system: Caco-2 cells; assay: Caco-2 permeability screening; format: in vitro ADME; conditions: 20 μM, 30 and 60 min, average ± SEM
Protocol: as §1

[6] = RBC/PL partitioning equilibrium in whole blood; conditions: 2 hours, LC-MS/MS (ICP-MS for Ga^3+); for K2EDTA KRBC/PL: pooled K2EDTA whole blood; for Heparin KRBC/PL: pooled sodium heparin whole blood
Protocol: The mixtures were digested at 80 °C for 4 hours and further diluted to a concentration of 6% nitric acid. Gallium (Ga^71) in whole blood, PL, and RBC samples were quantified using an Agilent 7700x ICP-MS instrument (Agilent Technologies). Metal levels were detected using an Octopole Reaction System in He mode. Other ICP-MS parameters include an radio frequency power of 1500 W, on octupole radio frequency of 190 V, an octapole bias of –18 V, a helium gas flow of 4.3 mL/min, and an argon flow of 0.99 L/min. Samples were loaded through a 7700X peristaltic (with a speed of 0.1 rps) and a MicroMist nebulizer. A standard calibration curve was used to derive metal concentrations. The calibration standards from 0–250 ppb were prepared in 6% nitric acid using atomic absorption standards (Sigma). Data analysis and extraction were performed using Agilent’s MassHunter software version 5.1, specifically version D.01.01.
All LC-MS/MS grade solvents were purchased from ThermoFisher. Ammonium bicarbonate was purchased from Sigma Aldrich. Analysis was performed on a Waters I-Class ultra-performance liquid chromatography system connected with a Waters Xevo TQ-XS mass spectrometer. Ten millimolar ammonium bicarbonate, pH 9.4 was used for mobile phase A, and 100% methanol was used for mobile phase B. The column flow rate was set at 0.400 mL/min. Chromatographic separation was performed with a BEH C18 (2.1 × 50 mm, 1.7 μm) column (Waters). […] The total run time was 4 minutes. The column temperature was set to 60 °C, and the autosampler temperature was set to 15 °C. Washing parameters were 800 μL of weak needle wash (acetonitrile [ACN]:Water/50:50) and 1000 μL of strong needle wash (methanol:ACN:2-propanol:formic acid/30:30:40:0.5) after every injection. Transitions used to monitor all drugs in the study are shown in Supplemental Table 1.
Whole blood (either potassium EDTA [K2EDTA] or sodium heparin) was preincubated at 37 °C for 30 minutes before spiking with the analyte. GaSal-5 was made at a stock concentration of 100 μg/mL in water and then spiked at a high concentration (1 μg/mL) and low concentration (100 ng/mL) to determine whether equilibrium was concentration dependent. Samples were then aliquoted and stored in a water bath at 37 °C for 1, 2, 3, 4, and 8 hours or harvested immediately. PL was harvested from samples by centrifuging at 3000 rpm at 4 °C for 10 minutes. PL was transferred to a new tube and considered the PL fraction, whereas the rest of the matrix was considered the RBC fraction. Samples were then either analyzed by LC-MS/MS or ICP-MS. […] For selectivity lot analysis, whole blood from 3 male and 3 female donors were incubated for 2 hours and then analyzed with LC-MS/MS and ICP-MS at a single concentration of 1 μg/mL. Data are presented as average ± SEM, n = 3 per sample, per concentration. Significance was determined by using a paired t test for ICP-MS and LC-MS/MS data (the same sample, different method) or a 2-tailed Student’s t test for different anticoagulants.

[Cr] [Chromium]
KRBC/PL (B/P ratio) ([1]; ref (Bonde & Christensen, 1991)): 1-3

[Sr+2] [Strontium]
KRBC/PL (B/P ratio) ([1]; ref (Cao et al., 2023)): 0.42

CN(C)C(=O)C(CCN1CCC(O)(c2ccc(Cl)cc2)CC1)(c1ccccc1)c1ccccc1 [Loperamide, reference compound]
efflux ratio at 60 min, 20 μM ([2]; human, Caco-2, pH 7.4, known drug standards, read-out: Efflux Ratio B to A/ A to B): 4.22
Papp A→B at 60 min, 20 μM ([2]; human, Caco-2, pH 7.4, known drug standards, read-out: Papp Apical to Basolateral): 3.51 ± 0.04 ×10⁻⁶ cm/s
Papp B→A at 60 min, 20 μM ([2]; human, Caco-2, pH 7.4, known drug standards, read-out: Papp Basolateral to Apical): 14.8 ± 2.12 ×10⁻⁶ cm/s
Papp at 60 min, 20 μM ([2]; human, Caco-2, pH 7.4, known drug standards, read-out: Permeability Ranking): 3.51 to 5.33 ×10⁻⁶ cm/s

CN(C)CCOc1ccc(C=Nc2ccccc2N=Cc2ccc(OCCN(C)C)cc2O)c(O)c1.[Ga+3] [GaSal-2]
Kd [3]: 1200 ± 300 nM
logP [4]: 3.7
Papp apical to basolateral [5]: Undetected
Papp basolateral to apical [5]: Undetected

CC(=Nc1ccccc1/N=C/c1ccc(OCCCO)cc1O)c1ccccc1O.[Ga+3] [GaSal-12]
Kd [3]: 520 ± 10 nM
logP [4]: 3.19
Papp A→B [2]: 0.05 ± 0.01 ×10⁻⁶ cm/s
Papp B→A [2]: 0.17 ± 0.06 ×10⁻⁶ cm/s
Papp [2]: < 1.12 ×10⁻⁶ cm/s
efflux ratio at 20 µM ([2]; human): 3.4
K2EDTA KRBC/PL ([6]; 0.1 μg/mL): 0.11 ± 0.06
Heparin KRBC/PL ([6]; 0.1 μg/mL): 0.86 ± 0.31
K2EDTA KRBC/PL ([6]; 1 μg/mL): 0.13 ± 0.04
Heparin KRBC/PL ([6]; 1 μg/mL): 1.48 ± 0.10

CCCCOc1ccc(/C=N/c2ccccc2/N=C/c2ccc(OCCCC)cc2O)c(O)c1.[Ga+3] [GaSal-15]
Kd [3]: 1980 ± 170 nM
logP [4]: 5.99
Papp A→B [2]: 0.79 ± 0.06 ×10⁻⁶ cm/s
Papp B→A [2]: 7.1 ± 1.13 ×10⁻⁶ cm/s
Papp [2]: < 1.12 ×10⁻⁶ cm/s
efflux ratio at 20 µM ([2]; human): 9.02
K2EDTA KRBC/PL ([6]; 0.1 μg/mL): 5.40 ± 0.13
Heparin KRBC/PL ([6]; 0.1 μg/mL): 0.83 ± 0.01
K2EDTA KRBC/PL ([6]; 1 μg/mL): 3.81 ± 0.97
Heparin KRBC/PL ([6]; 1 μg/mL): 1.24 ± 0.03

COCCOCCOc1ccc(/C=N/c2ccccc2N=C(C)c2ccccc2O)c(O)c1.[Ga+3] [GaSal-10]
Kd [3]: 3400 ± 300 nM

C/C(=N\c1ccccc1/N=C/c1ccc(OCC[N+](C)(C)C)cc1O)c1ccccc1O.[Ga+3] [GaSal-6]
Kd [3]: 4000 ± 2800 nM

[Mn+2] [Manganese]
KRBC/PL (B/P ratio) ([1]; ref (Smith et al., 2007)): 0.2

[Cd] [Cadmium]
KRBC/PL (B/P ratio) ([1]; ref (Cao et al., 2023)): 4.28
